The record followed here is ChEMBL document CHEMBL1124810, “Synthesis and anti-HIV evaluation of 2',3'-dideoxyribo-5-chloropyrimidine analogues: reduced toxicity of 5-chlorinated 2',3'-dideoxynucleosides” (1990).

Common to all, as to assay type: functional
In assay [1] the test system is MT4. As to the kind of experiment: Selectivity index of CD50 to ED50 of MT-4 cells.
The subject of assay [2] is Human immunodeficiency virus 1. As to the kind of experiment: Effective dose achieving 50% protection of MT-4 cells against the cytopathic effect of HIV. As to conditions: Human immunodeficiency virus 1, MT4; read-out: ED50 (the source's name).
Assay [3] relates to MT4. As to the kind of experiment: Cytotoxic dose required to reduce the viability of normal uninfected MT-4 cells by 50%. Conditions: Homo sapiens, read-out: CD50 (the source's name).

As to `[N-]=[N+]=N[C@H]1C[C@H](n2ccc(N)nc2=O)O[C@@H]1CO`, in assay [1], the Selectivity index is reported as 21. Also, in assay [2], the EC50 was determined as 7.6 µM. For the same compound, the CC50 in assay [3] was found to be 160 µM.

In turn, `Nc1ccn([C@H]2C=C[C@@H](CO)O2)c(=O)n1` returned a Selectivity index in assay [1] of 61. For the same compound, the EC50 in assay [2] amounted to 0.13 µM. Also, the CC50 in assay [3] turned out to be 7.9 µM.

Compound `Nc1nc(=O)n([C@H]2C=C[C@@H](CO)O2)cc1Cl` had a Selectivity index in assay [1] of 8.4. The EC50 in assay [2] was 22 µM. Moreover, in assay [3], the CC50 was found to be 185 µM.

Turning to `O=c1[nH]c(=O)n([C@H]2C=C[C@@H](CO)O2)cc1Cl`, the Selectivity index in assay [1] was less than 2.2. Besides, in assay [2], the EC50 is greater than 20 µM. In assay [3], the CC50 is 44 µM.

For `O=c1ccn(C2C[C@@H](F)[C@@H](CO)O2)c(=O)[nH]1` (some centres not stated), in assay [1], the Selectivity index came out at 18. The EC50 in assay [2] worked out at 0.06 µM. The CC50 in assay [3] worked out at 1.1 µM.

For `O=c1ccn(C2CCC(CO)O2)c(=O)[nH]1` (configuration not stated), the Selectivity index in assay [1] is listed as greater than 3. In addition, the EC50 in assay [2] is 210 µM. For the same compound, the CC50 in assay [3] is greater than 625 µM.

Turning to `Nc1nc(=O)n(C2C[C@@H](F)[C@@H](CO)O2)cc1Cl` (some centres not stated), the Selectivity index in assay [1] is greater than 38. Moreover, the EC50 in assay [2] is 26 µM. Besides, the CC50 in assay [3] is greater than 1000 µM.

As for `Nc1ccn(C2C[C@@H](F)[C@@H](CO)O2)c(=O)n1` (some centres not stated), the Selectivity index in assay [1] worked out at 1.6. Also, the EC50 in assay [2] amounted to 16 µM. In addition, the CC50 in assay [3] came to 26 µM.

Compound `O=c1[nH]c(=O)n(C2CCC(CO)O2)cc1Cl` (configuration not stated) gave a Selectivity index in assay [1] greater than 6. Besides, the EC50 in assay [2] came out at 81 µM. In addition, in assay [3], the CC50 is greater than 500 µM.

In the case of `[N-]=[N+]=N[C@@H]1CC(n2cc(Cl)c(=O)[nH]c2=O)O[C@@H]1CO` (some centres not stated), the Selectivity index in assay [1] came out at 296. Further, in assay [2], the EC50 was found to be 0.72 µM. Further, the CC50 in assay [3] stood at 213 µM.

In turn, `Cc1cn(/C=C/C(O)C(O)CO)c(=O)[nH]c1=O` (configuration not stated) returned a Selectivity index in assay [1] greater than 1. Further, the EC50 in assay [2] amounted to 475 µM. Besides, the CC50 in assay [3] was greater than 500 µM.

For the compound `O=c1ccn(/C=C/C(O)C(O)CO)c(=O)[nH]1` (configuration not stated), in assay [2], the EC50 is greater than 500 µM. For the same compound, in assay [3], the CC50 was greater than 500 µM.

For the compound `[N-]=[N+]=N[C@@H]1CC(n2cc(Cl)c(N)nc2=O)O[C@@H]1CO` (some centres not stated), the Selectivity index in assay [1] amounted to 97. In addition, the EC50 in assay [2] came to 9 µM. For the same compound, in assay [3], the CC50 stood at 877 µM.

For the compound `Nc1nc(=O)n(C2CCC(CO)O2)cc1Cl` (configuration not stated), in assay [2], the EC50 is greater than 500 µM. Besides, the CC50 in assay [3] is greater than 500 µM.

`O=c1ccn([C@H]2C=C[C@@H](CO)O2)c(=O)[nH]1` came in with a Selectivity index in assay [1] of less than 2. Also, the EC50 in assay [2] was greater than 20 µM. Moreover, in assay [3], the CC50 was found to be 39 µM.

`[N-]=[N+]=N[C@H]1C[C@H](n2ccc(=O)[nH]c2=O)O[C@@H]1CO` [NAVURIDINE] had a Selectivity index in assay [1] of 90. In addition, the EC50 in assay [2] turned out to be 0.43 µM. In assay [3], the CC50 worked out at 39 µM.

As for `O=c1[nH]c(=O)n([C@H]2C[C@H](F)[C@@H](CO)O2)cc1Cl` [RALURIDINE], in assay [1], the Selectivity index was 1408. In addition, the EC50 in assay [2] is 0.38 µM.

In turn, `Cc1cn([C@H]2C=C[C@@H](CO)O2)c(=O)[nH]c1=O` [STAVUDINE] displayed a Selectivity index in assay [1] of 380. The EC50 in assay [2] was found to be 0.05 µM. For the same compound, in assay [3], the CC50 was 19 µM.

As for `Nc1ccn([C@H]2CC[C@@H](CO)O2)c(=O)n1` [ZALCITABINE], in assay [1], the Selectivity index was 120. The EC50 in assay [2] was 0.3 µM. Moreover, in assay [3], the CC50 was 40 µM.

Regarding `Cc1cn([C@H]2C[C@H](N=[N+]=[N-])[C@@H](CO)O2)c(=O)[nH]c1=O` [ZIDOVUDINE], the Selectivity index in assay [1] came out at 1603. The EC50 in assay [2] came out at 0.003 µM. Also, the CC50 in assay [3] was found to be 4.81 µM.
